Data set [1] deals with malignant melanoma cancer model A375. The data set is described as follows: Human malignant melanoma cancer model A375, large tumors. Type of data set: in vivo, NMRI nude mice. The protocol:
(§1) Feed and water were provided ad libitum. […] Identification used: ear mark and cage labels. […] Tumor volumes were calculated according to the following equation: […]
The evaluation of auristatin E and the albumin-binding auristatin E derivative AE-Keto-Sulf07 in a human malignant melanoma cancer model A375 was carried out as described in the general procedure for cell-line-derived xenograft models.
Stock solutions were prepared as follows: • 1) 7 mice, 28 g average weight, 310 mm^3 average median tumor volume on day of randomization: 0.3 mg/kg auristatin E TFA salt (AE equiv.) dosed twice weekly for 3 weeks on day 1, 6, 9, 13, 16≡0.35 mg/kg≡7.1 μg/20 g mouse.
The evaluation of auristatin E and the albumin-binding auristatin E derivative AE-Ester-Sulf07 in a human malignant melanoma cancer model A375 was carried out as described in the general procedure for cell-line-derived xenograft models.
Based on the dosing experience in the RXF631 xenograft model, stock solutions were prepared as follows: • 1) 7 mice, 28 g average weight, 310 mm^3 average median tumor volume on day of randomization: 0.3 mg/kg auristatin E TFA salt (AE equiv.) dosed twice weekly for 3 weeks on day 1, 6, 9, 13, 16=0.35 mg/kg≡7.1 μg/20 g mouse.

Data set [2] has as its system NSCLC xenograft model LXFA737. The experiment in a line: Human non-small cell lung cancer model LXFA737, small tumors. It is filed as in vivo, NMRI nude mice. Particulars: for p, antitumor efficacy versus auristatin E: 8 times twice weekly, day 56 and 63. An excerpt:
Mice were kept under a 14-hour light/10-hour dark, artificial light cycle. The animals were fed with autoclaved Teklad Global 19% Protein Extruded Diet (T.2019S.12) from Envigo RMS SARL and had access to sterile filtered and acidified (pH 2.5) tap water which was changed twice weekly. Feed and water were provided ad libitum. […] Animals were routinely monitored twice daily on working days and daily on Saturdays and Sundays. Starting on day 0, animals were weighed twice a week. Relative body weights (RBW) of individual animals were calculated by dividing the individual absolute body weight on day X (BWx) by the individual body weight on the day of randomization multiplied by 100%. […] Tumor volumes were calculated according to the following equation: […]
Statistical analysis was only carried out if at least 50% of the initially randomized animals in a relevant group were still alive. Comparisons between test groups were carried out for the same days. By convention, p-values ≤0.05 indicate significance of tumor inhibition. Statistical calculations were performed using GraphPad Prism bioanalytic software (San Diego Calif. USA, www.graphpad.com).
The evaluation of auristatin E and the albumin-binding auristatin E derivative AE-Keto-Sulf07 in a human non-small cell lung cancer model LXFA737 was carried out as described in the general procedure for patient-derived xenograft models.
Sample preparation: 38 mg weighed in a 30 mL vial dissolved in 23.8 mL 50/50 tert-butanol/10 mM sodium citrate buffer, 5% sucrose—pH 6; 1.2 mL were aliquoted in 4 mL vials.
The evaluation of auristatin E and the albumin-binding auristatin E derivative AE-Ester-Sulf07 in a human non-small cell lung cancer model LXFA737 was carried out as described in the general procedure for patient-derived xenograft models.

Data set [3] has as its system human ovarian carcinoma model A2780. The data set is described as follows: Human ovarian carcinoma model A2780, small tumors. Type of data set: in vivo, NMRI nude mice. The method, then:
as §1
The evaluation of auristatin E and the albumin-binding auristatin E derivative AE-Keto-Sulf07 in a human ovarian carcinoma model A2780 was carried out as described in the general procedure for cell-line-derived xenograft models.
The evaluation of the albumin-binding auristatin E derivative AE-Ester-Sulf07 in a human ovarian carcinoma model A2780 was carried out as described in the general procedure for cell-line-derived xenograft models.
AE-Ester-Sulf07 was also tested in the same ovarian carcinoma model A2780 with smaller tumors and a different dosing scheme to diminish the side effects of the drug on the skin of the mice. AE-Ester-Sulf07 was dosed at 3.8 mg/kg four times once weekly, showing again a statistically significant improved antitumor effect compared to the control (p<0.01 from day 7 to 14). Mice treated with AE-Ester-Sulf07 in the new dosing regimen achieved partial remission from day 12 until day 35 and complete remission from day 39 until the end of the study on day 70.

Data set [4] has as its system human tumor xenograft models. The experiment in a line: Antitumor activity in human tumor xenograft mice models (overall statement). It is filed as in vivo, nude mice. Conditions: starting tumor volumes approximately 130-170 mm^3 and up to approximately 380 mm^3. For orientation: In xenograft studies the graft and the host belong to different species.
The mark [5] stands for this setting: 2.4 mg/kg five times twice weekly.

A value given as a limit tells only on which side of the number the result lay.

With “2-(2-(1-(4-(((1S,2R)-2-((2R,3R)-3-((S)-1-((3R,4R,5S)-4-((S)-2-((R)-2-(dimethylamino)-3-methylbutanamido)-N,3-dimethylbutanamido)-3-methoxy-5-methylheptanoyl)pyrrolidin-2-yl)-3-methoxy-2-methylpropanamido)-1-phenylpropoxy)carbonyl)phenyl)ethylidene)hydrazine-1-carbonyl)-5-(6-(2,5-dioxo-2,5-dihydro-1H-pyrrol-1-yl)hexanamido)benzenesulfonic acid [AE-Ester-Sulf07]”, the “p, antitumor improvement versus auristatin E” value in data set [1] (2.4 mg/kg (2% polysorbate 80 or 4% 2-HPßCD) versus auristatin E 0.3 mg/kg, five injections twice weekly, day 9 to 33) was < 0.01. Moreover, in data set [1] (setting [5]), the body weight change entry is recorded as “No significant body weight change compared to the control”. In addition, the side effects entry in data set [1] (setting [5]) is “wounds due to biting and scratching were observed starting from day 9”. The tumor response result is “almost complete remission” in data set [1] (2.4 mg/kg five times twice weekly, day 16 until end of study on day 37); “complete tumor remission” in data set [2] (2.4 mg/kg 8 times twice weekly, reached on day 21, until end of study on day 74); “partial remission (partial remission >10-50%)” in data set [3] (3.8 mg/kg four times once weekly, day 12 until day 35); “complete remission (complete remission <10%)” in data set [3] (3.8 mg/kg four times once weekly, day 39 until end of study on day 70). The minimum tumor volume is listed as 4 mm^3 in data set [1] (2.4 mg/kg reconstituted with 2% polysorbate 80, day 23) and 1 mm^3 in data set [1] (2.4 mg/kg reconstituted with 4% 2-HPßCD, day 26). In addition, the animals lost entry in data set [1] (2.4 mg/kg, 2% polysorbate 80 group) is “Only one mouse”; in data set [2] (2.4 mg/kg 8 times twice weekly), “five mice had to be euthanized due to a combination of body weight loss and skin lesions”; in data set [3] (3.8 mg/kg four times once weekly), “Three AE-Ester-Sulf07 treated mice showed body weight loss and had to be sacrificed on day 59”. Moreover, the “p, antitumor efficacy versus auristatin E” value in data set [2] (2.4 mg/kg versus auristatin E 0.3 mg/kg) was < 0.05. In addition, in data set [2] (2.4 mg/kg, until end of study on day 74), the tumor volume result is given as “unmeasurable level”. Moreover, the “p, antitumor effect compared to the control” value in data set [3] (3.8 mg/kg four times once weekly, day 7 to 14) is reported as < 0.01. The “antitumor activity in all human tumor xenografts evaluated” value (shortened to “antitumor activity”) in data set [4] is “partial and complete remissions”.
Regarding `CC[C@H](C)[C@@H]([C@@H](CC(=O)N1CCC[C@H]1[C@H](OC)[C@@H](C)C(=O)N[C@H](C)C(=NNC(=O)c1ccc(NC(=O)CCCCCN2C(=O)C=CC2=O)cc1S(=O)(=O)O)c1ccccc1)OC)N(C)C(=O)[C@@H](NC(=O)[C@H](C(C)C)N(C)C)C(C)C` [AE-Keto-Sulf07, 2-(2-((R)-2-((2R,3R)-3-((S)-1-((3R,4S,5S)-4-((S)-2-((S)-2-(dimethylamino)-3-methylbutanamido)-N,3-dimethylbutanamido)-3-methoxy-5-methylheptanoyl)pyrrolidin-2-yl)-3-methoxy-2-methylpropanamido)-1-phenylpropylidene)hydrazine-1-carbonyl)-5-(6-(2,5-dioxo-2,5-dihydro-1H-pyrrol-1-yl)hexanamido)benzenesulfonic acid], the animals lost entry in data set [1] (6.5 mg/kg five times twice weekly) is “two mice had to be sacrificed for general bad conditions”; in data set [2] (4.5 mg/kg administered in polysorbate 80), “two mice had to be sacrificed for general bad conditions”; in data set [3] (higher dose group 5.0 mg/kg) it was “One mouse from the higher dose group was found dead on day 35”; in data set [3] (lower dose group 3.0 mg/kg) it was “one from the lower dose group had to be sacrificed on day 42 for general bad conditions”. In addition, the tumor response entry in data set [1] (6.5 mg/kg five times twice weekly, day 19 until end of study on day 37) was “complete remission (complete remission <10%)”; in data set [2] (4.5 mg/kg 8 times twice weekly, reached on day 28, until end of study on day 74) it was “complete tumor remission”; in data set [3] (3.0 and 5.0 mg/kg eight times twice weekly, day 9 until end of study on day 60), “partial remission (partial remission >10-50%)”. Besides, the “p, antitumor effect versus auristatin E” value in data set [1] (6.5 mg/kg versus auristatin E 0.3 mg/kg, five injections twice weekly, day 9 until day 33) was < 0.01. The molecule also showed a minimum tumor volume in data set [1] (6.5 mg/kg, day 28) of 1 mm^3. For the same molecule, the “tumor volume at the end of the study” value in data set [1] (6.5 mg/kg, day 37) is ~14 mm^3. The “transient body weight loss” value in data set [1] (6.5 mg/kg, reached on day 21) is reported as 13%; in data set [3] (3.0 and 5.0 mg/kg, after the first treatment), ~2%. The “p, antitumor efficacy versus auristatin E” value in data set [2] (4.5 mg/kg (polysorbate 80 and 2-HPßCD buffers) versus auristatin E 0.3 mg/kg) is recorded as < 0.01; in data set [3] (3.0 and 5.0 mg/kg versus auristatin E 0.3 mg/kg, eight times twice weekly, day 7 to day 29) it was < 0.01. Also, the “maximum body weight loss” value in data set [2] (4.5 mg/kg in 2-HPßCD, day 32) is listed as −7%. Besides, the tumor volume entry in data set [2] (4.5 mg/kg, until end of study on day 74, independently of the buffer) is “unmeasurable level”. The “tumor response (transient)” value in data set [3] (higher dose 5.0 mg/kg, day 25 to day 51) was “complete remission (complete remission <10%)”; in data set [3] (lower dose 3.0 mg/kg, day 23 to day 35), “complete remission (complete remission <10%)”. The “antitumor activity” value in data set [4] was “partial and complete remissions”.
As to `CC[C@H](C)[C@@H]([C@@H](CC(=O)N1CCC[C@H]1[C@H](OC)[C@@H](C)C(=O)N[C@H](C)[C@@H](O)c1ccccc1)OC)N(C)C(=O)[C@@H](NC(=O)[C@H](C(C)C)N(C)C)C(C)C` [auristatin E], the tumor response result was “stable disease (stable disease >75-125%)” in data set [1] (0.3 mg/kg five times twice weekly, initial, until day 14) and “stable disease (stable disease >75-125%)” in data set [2] (0.3 mg/kg 8 times twice weekly, temporarily, day 21 to day 42). For the same molecule, the antitumor effect entry in data set [3] (0.3 mg/kg eight times twice weekly) is listed as “did not achieve any antitumor effect”. In addition, in data set [4], the “antitumor activity” value is “principally inactive”.
